# From ChEMBL document CHEMBL6096738, “Optimization of Single Relaxin B-Chain Peptide Leads to the Identification of R2R01, a Potent, Long-Acting RXFP1 Agonist for Cardiovascular and Renal Diseases” (J Med Chem, 2025)
# Starred links: 1 amine or outer side, 2 acyl side, 3 side chain; linkers in the order of their positions; H or OH if unused. Non-standard residues stand in square brackets, D forms with d. Residues, ends and D or L forms follow the SMILES beside them. Groups on a side chain read outwards from the residue. ξ: configuration not given here. *: point of attachment. X2 = CCCCCCCCCCCCCCCC(=O)N[C@@H](CCC(=O)N[C@@H](CCC(=O)N[C@@H](CCC(=O)NCCCOCCOCCOCCCNC(=O)CCC(=O)NCCCOCCOCCOCCCNC(=O)CCC(=O)NCCCOCCOCCOCCCN*)C(=O)O)C(=O)O)C(=O)O; PEG12 = NCCOCCOCCOCCOCCOCCOCCOCCOCCOCCOCCOCCOCCC(=O)O; γGlu = O=C(O)[C@H](CCC(=O)[*:2])N[*:1]; ξγGlu = O=C(O)C(CCC(=O)[*:2])N[*:1]; Stearoyl = CCCCCCCCCCCCCCCCCC(=O)*; Palmitoyl = CCCCCCCCCCCCCCCC(=O)*; Suc = O=C(CCC(=O)[*:2])[*:1]; αMeK = C[C@](N)(CCCCN)C(=O)O; Nle = CCCC[C@H](N)C(=O)O; AEEA = NCCOCCOCC(=O)O; Aib = CC(C)(N)C(=O)O
# Legend:
# [1] = target: T1, Relaxin receptor 1 (Homo sapiens, UniProt Q9HBX9); assay: Agonist activity at human RXFP1 expressed in human OVCAR-5 cells assessed as intracellular cAMP accumulation incubated for 30 mins by HTRF assay; format: functional, cell-based
# T1 sequence (Q9HBX9 whole entry): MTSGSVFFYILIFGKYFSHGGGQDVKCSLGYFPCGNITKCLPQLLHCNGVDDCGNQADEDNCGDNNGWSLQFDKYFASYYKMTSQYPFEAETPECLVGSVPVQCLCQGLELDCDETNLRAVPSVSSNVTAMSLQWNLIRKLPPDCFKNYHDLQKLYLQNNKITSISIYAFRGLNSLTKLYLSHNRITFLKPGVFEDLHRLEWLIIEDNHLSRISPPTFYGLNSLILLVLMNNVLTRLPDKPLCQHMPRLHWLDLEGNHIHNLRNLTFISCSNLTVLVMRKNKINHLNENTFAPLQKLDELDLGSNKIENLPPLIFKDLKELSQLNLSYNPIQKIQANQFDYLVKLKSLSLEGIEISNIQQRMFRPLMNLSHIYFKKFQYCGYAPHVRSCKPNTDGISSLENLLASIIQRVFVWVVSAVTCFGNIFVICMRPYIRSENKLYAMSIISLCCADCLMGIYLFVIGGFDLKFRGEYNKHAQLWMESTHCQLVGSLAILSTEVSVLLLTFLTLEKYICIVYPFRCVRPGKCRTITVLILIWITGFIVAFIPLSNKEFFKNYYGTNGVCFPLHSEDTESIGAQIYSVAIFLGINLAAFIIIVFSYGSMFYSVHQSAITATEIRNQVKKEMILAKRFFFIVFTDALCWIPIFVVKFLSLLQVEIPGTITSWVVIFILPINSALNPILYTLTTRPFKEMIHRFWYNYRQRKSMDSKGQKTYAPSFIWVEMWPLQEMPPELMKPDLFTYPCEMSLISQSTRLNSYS
# [2] = target: T2, Relaxin receptor 1 (Homo sapiens) (UniProt Q9HBX9); assay: Agonist activity at human RXFP1 expressed in human OVCAR-5 cells assessed as intracellular cAMP accumulation by measuring maximal efficacy incubated for 30 mins by HTRF assay relative to control; format: functional, cell-based; conditions: filed as agonist
# T2 sequence (whole entry): T1 sequence (Q9HBX9 whole entry)
# [3] = target: T1, Relaxin receptor 1; assay: Agonist activity at human RXFP1 expressed in 2%HSA treated human OVCAR-5 cells assessed as intracellular cAMP accumulation incubated for 30 mins with 2% HSA pretreated compound by HTRF assay; format: functional, cell-based
# [4] = target: T2, Relaxin receptor 1 (Homo sapiens); assay: Agonist activity at human RXFP1 expressed in 2%HSA treated human OVCAR-5 cells assessed as intracellular cAMP accumulation by measuring maximal efficacy incubated for 30 mins with 2% HSA pretreated compound by HTRF assay relative to control; format: functional, cell-based; conditions: filed as agonist
# [5] = Half-life in male Sprague-Dawley rat at 1 mg/kg, iv measured after 198 hrs by LC-HRMS analysis; format: ADME, organism-based; conditions: in vivo
SMILES,EC50 [1],Emax [2],EC50 [3],Emax [4],half-life [5]
CCCCCCCCCCCCCCCC(=O)N[C@@H](CCC(=O)N[C@@H](CCC(=O)N[C@@H](CCC(=O)NCCOCCOCC(=O)NCCOCCOCC(=O)NCCOCCOCC(=O)NCCCC[C@H](NC(=O)CNC(=O)[C@H](CCC(=O)O)NC(=O)C(C)(C)NC(=O)C(C)(C)NC(=O)[C@@H](NC(=O)[C@H](CCCCNC(C)=O)NC(=O)[C@H](C)NC(=O)[C@H](CCCNC(=N)N)NC(=O)[C@@H](NC(=O)[C@H](CCCCN)NC(=O)[C@H](CCC(=O)O)NC(=O)[C@H](CCCNC(=N)N)NC(=O)CNC(=O)[C@H](CCC(=O)O)NC(=O)[C@H](CC(C)C)NC(C)=O)C(C)C)[C@@H](C)CC)C(=O)N[C@@H](CO)C(=O)N[C@H](C(=O)N[C@@H](Cc1c[nH]c2ccccc12)C(=O)N[C@@H](CO)C(=O)NC(C)(C)C(=O)N[C@@H](CCCNC(=N)N)C(=O)N[C@@H](CCCCN)C(=O)N[C@@H](CCCCNC(C)=O)C(N)=O)[C@@H](C)O)C(=O)O)C(=O)O)C(=O)O (Ac-LEGREKVRAK(Ac)I[Aib][Aib]EGK([AEEA-AEEA-AEEA-γGlu-γGlu-γGlu-Palmitoyl])STWS[Aib]RKK(Ac)-NH2),,88%,> 2000 nM,,
CCCCCCCCCCCCCCCC(=O)N[C@@H](CCC(=O)N[C@@H](CCC(=O)N[C@@H](CCC(=O)NCCCC[C@H](NC(=O)COCCOCCNC(=O)COCCOCCNC(=O)COCCOCCNC(=O)[C@H](CCCCNC(C)=O)NC(=O)[C@H](CCCCN)NC(=O)[C@H](CCCNC(=N)N)NC(=O)C(C)(C)NC(=O)[C@H](CO)NC(=O)[C@H](Cc1c[nH]c2ccccc12)NC(=O)[C@@H](NC(=O)[C@H](CO)NC(=O)[C@H](CCCC)NC(=O)CNC(=O)[C@H](CCC(=O)O)NC(=O)C(C)(C)NC(=O)C(C)(C)NC(=O)[C@@H](NC(=O)[C@H](CCCCNC(C)=O)NC(=O)[C@H](C)NC(=O)[C@H](CCCNC(=N)N)NC(=O)[C@@H](NC(=O)[C@H](CCCCN)NC(=O)[C@H](CCC(=O)O)NC(=O)[C@H](CCCNC(=N)N)NC(=O)CNC(=O)[C@H](CCC(=O)O)NC(=O)[C@H](CC(C)C)NC(C)=O)C(C)C)[C@@H](C)CC)[C@@H](C)O)C(N)=O)C(=O)O)C(=O)O)C(=O)O (Ac-LEGREKVRAK(Ac)I[Aib][Aib]EG[Nle]STWS[Aib]RKK(Ac)[AEEA][AEEA][AEEA]K([γGlu-γGlu-γGlu-Palmitoyl])-NH2),1.6 nM,91%,77 nM,80%,
CCCCCCCCCCCCCCCC(=O)N[C@@H](CCC(=O)N[C@@H](CCC(=O)NC(CCC(=O)NCCOCCOCC(=O)NCCOCCOCC(=O)NCCOCCOCC(=O)NCCCC[C@H](NC(=O)[C@H](C)NC(=O)[C@H](CCCNC(=N)N)NC(=O)[C@@H](NC(=O)[C@H](CCCCN)NC(=O)[C@H](CCC(=O)O)NC(=O)[C@H](CCCNC(=N)N)NC(=O)CNC(=O)[C@H](CCC(=O)O)NC(=O)[C@H](CC(C)C)NC(C)=O)C(C)C)C(=O)N[C@H](C(=O)NC(C)(C)C(=O)NC(C)(C)C(=O)N[C@@H](CCC(=O)O)C(=O)NCC(=O)N[C@@H](CCCC)C(=O)N[C@@H](CO)C(=O)N[C@H](C(=O)N[C@@H](Cc1c[nH]c2ccccc12)C(=O)N[C@@H](CO)C(=O)NC(C)(C)C(=O)N[C@@H](CCCNC(=N)N)C(=O)N[C@@H](CCCCN)C(=O)N[C@@H](CCCCNC(C)=O)C(N)=O)[C@@H](C)O)[C@@H](C)CC)C(=O)O)C(=O)O)C(=O)O (stereo not given in full) (Ac-LEGREKVRAK([AEEA-AEEA-AEEA-ξγGlu-γGlu-γGlu-Palmitoyl])I[Aib][Aib]EG[Nle]STWS[Aib]RKK(Ac)-NH2),14.5 nM,78%,> 2000 nM,,
CCCCCCCCCCCCCCCC(=O)N[C@@H](CCC(=O)N[C@@H](CCC(=O)N[C@@H](CCC(=O)NCCCC[C@H](NC(=O)CCOCCOCCOCCOCCOCCOCCOCCOCCOCCOCCOCCOCCNC(=O)[C@H](CCCCNC(C)=O)NC(=O)[C@H](CCCCN)NC(=O)[C@H](CCCNC(=N)N)NC(=O)C(C)(C)NC(=O)[C@H](CO)NC(=O)[C@H](Cc1c[nH]c2ccccc12)NC(=O)[C@@H](NC(=O)[C@H](CO)NC(=O)[C@H](CCCC)NC(=O)CNC(=O)[C@H](CCC(=O)O)NC(=O)C(C)(C)NC(=O)C(C)(C)NC(=O)[C@@H](NC(=O)[C@H](CCCCNC(C)=O)NC(=O)C(C)(C)NC(=O)[C@H](CCCNC(=N)N)NC(=O)[C@@H](NC(=O)[C@H](CCCCN)NC(=O)[C@H](CCC(=O)O)NC(=O)[C@H](CCCNC(=N)N)NC(=O)CNC(=O)[C@H](CCC(=O)O)NC(=O)[C@H](CC(C)C)NC(C)=O)C(C)C)[C@@H](C)CC)[C@@H](C)O)C(N)=O)C(=O)O)C(=O)O)C(=O)O (Ac-LEGREKVR[Aib]K(Ac)I[Aib][Aib]EG[Nle]STWS[Aib]RKK(Ac)[PEG12]K([γGlu-γGlu-γGlu-Palmitoyl])-NH2),,86%,46 nM,82%,6.9 h

# Now from value to molecule:
EC50 [1],Emax [2],EC50 [3],Emax [4],half-life [5],SMILES
0.43 nM,91%,31.7 nM,89%,,CCCCCCCCCCCCCCCC(=O)N[C@@H](CCC(=O)N[C@@H](CCC(=O)N[C@@H](CCC(=O)NCCCOCCOCCOCCCNC(=O)CCC(=O)NCCCOCCOCCOCCCNC(=O)CCC(=O)NCCCOCCOCCOCCCNC(=O)CCC(=O)NCCCC[C@H](NC(=O)[C@@H](NC(=O)[C@H](CCCCNC(C)=O)NC(=O)[C@H](C)NC(=O)[C@H](CCCNC(=N)N)NC(=O)[C@@H](NC(=O)[C@H](CCCCN)NC(=O)[C@H](CCC(=O)O)NC(=O)[C@H](CCCNC(=N)N)NC(=O)CNC(=O)[C@H](CCC(=O)O)NC(=O)[C@H](CC(C)C)NC(C)=O)C(C)C)[C@@H](C)CC)C(=O)NC(C)(C)C(=O)N[C@@H](CCC(=O)O)C(=O)NCC(=O)N[C@@H](CCCC)C(=O)N[C@@H](CO)C(=O)N[C@H](C(=O)N[C@@H](Cc1ccccc1)C(=O)N[C@@H](CO)C(=O)N[C@@](C)(CCCCN)C(=O)N[C@@H](CCCNC(=N)N)C(=O)N[C@@H](C)C(=O)N[C@@H](CCCCNC(C)=O)C(N)=O)[C@@H](C)O)C(=O)O)C(=O)O)C(=O)O (Ac-LEGREKVRAK(Ac)IK([Suc-X2])[Aib]EG[Nle]STFS[αMeK]RAK(Ac)-NH2)
,88%,47.2 nM,82%,,CCCCCCCCCCCCCCCCCC(=O)N[C@@H](CCC(=O)N[C@@H](CCC(=O)N[C@@H](CCC(=O)NCCOCCOCC(=O)NCCOCCOCC(=O)NCCOCCOCC(=O)NCCCC[C@H](NC(=O)[C@H](CCCCNC(C)=O)NC(=O)[C@H](CCCCN)NC(=O)[C@H](CCCNC(=N)N)NC(=O)C(C)(C)NC(=O)[C@H](CO)NC(=O)[C@H](Cc1c[nH]c2ccccc12)NC(=O)[C@@H](NC(=O)[C@H](CO)NC(=O)[C@H](CCC(N)=O)NC(=O)CNC(=O)[C@H](CCC(=O)O)NC(=O)C(C)(C)NC(=O)C(C)(C)NC(=O)[C@@H](NC(=O)[C@H](CCCCNC(C)=O)NC(=O)[C@H](C)NC(=O)[C@H](CCCNC(=N)N)NC(=O)[C@@H](NC(=O)[C@H](CCCCN)NC(=O)[C@H](CCC(=O)O)NC(=O)[C@H](CCCNC(=N)N)NC(=O)CNC(=O)[C@H](CCC(=O)O)NC(=O)[C@H](CC(C)C)NC(C)=O)C(C)C)[C@@H](C)CC)[C@@H](C)O)C(N)=O)C(=O)O)C(=O)O)C(=O)O (Ac-LEGREKVRAK(Ac)I[Aib][Aib]EGQSTWS[Aib]RKK(Ac)K([AEEA-AEEA-AEEA-γGlu-γGlu-γGlu-Stearoyl])-NH2)
0.06 nM,95%,19.4 nM,94%,11.5 h,CCCCCCCCCCCCCCCC(=O)N[C@@H](CCC(=O)N[C@@H](CCC(=O)N[C@@H](CCC(=O)NCCCOCCOCCOCCCNC(=O)CCC(=O)NCCCOCCOCCOCCCNC(=O)CCC(=O)NCCCOCCOCCOCCCNC(=O)CCC(=O)NCCCC[C@H](NC(=O)[C@H](C)NC(=O)[C@H](CCCNC(=N)N)NC(=O)[C@@H](NC(=O)[C@H](CCCCN)NC(=O)[C@H](CCC(=O)O)NC(=O)[C@H](CCCNC(=N)N)NC(=O)CNC(=O)[C@H](CCC(=O)O)NC(=O)[C@H](CC(C)C)NC(C)=O)C(C)C)C(=O)N[C@H](C(=O)NC(C)(C)C(=O)NC(C)(C)C(=O)N[C@@H](CCC(=O)O)C(=O)NCC(=O)N[C@@H](CCC(N)=O)C(=O)N[C@@H](CO)C(=O)N[C@H](C(=O)N[C@@H](Cc1ccccc1)C(=O)N[C@@H](CO)C(=O)N[C@@](C)(CCCCN)C(=O)N[C@@H](CCCNC(=N)N)C(=O)N[C@@H](C)C(=O)N[C@@H](CCCCNC(C)=O)C(N)=O)[C@@H](C)O)[C@@H](C)CC)C(=O)O)C(=O)O)C(=O)O (Ac-LEGREKVRAK([Suc-X2])I[Aib][Aib]EGQSTFS[αMeK]RAK(Ac)-NH2)
